Test results reported in patent publication US4761414A, “Substituted 1H-pyrimido[1,2-a-]-pyrido[3,4-e]pyrazine 6 oxides” (G. D. Searle & Co., priority 1986, dated 1988).
Values after ≈ are worked out from the molar mass of the structure shown. Like-named read-outs stand apart in the source and are kept apart here.

Experiments:
B. fragilis NCTC 10581 = assay: MIC/MBC against Bacteroides fragilis strain A (96-well microtitre plates, anaerobic chamber); format: cell-based; settings: Bacteroides fragilis; for MBC: NCTC10581, 99.9% reduction in viable count; for MIC: NCTC10581, 48 h, 48 hours, 37° C., anaerobic
Method: (§1) The screening panel utilized in this Example consisted of 5 strains of Bacteroides fragilis. All assays were carried out in 96-well microtitre plates. If an isolate was obtained from either a culture collection or clinical source, the isolate was immediately inoculated into Wilkens-Chalgren broth (Oxoid) and incubated at 37° C. in an anaerobic chamber in an atmosphere of 85% nitrogen, 10% carbon dioxide, and 5% hydrogen for 48 hours. At the end of this time, the viable count was about 10^12 organisms/ml broth. A 1 ml aliquot of each culture was placed in an ampoule and quick frozen in acetone-dry ice mixture and stored in liquid nitrogen. When an inoculum was utilized in an assay, one of the ampoules was thawed and diluted with fresh broth to yield a suspension having a count of 5×10^5 organisms/ml. A 100 μl aliquot of this suspension was inoculated into each well of the microtitre plate. A 2 mg sample of the test compound was dissolved in 0.2 ml of a suitable solvent such as dimethylsulfoxide, polyethylene glycol 200 or methanol. […] After addition of the test solution the final inoculum level was 10^5 cells/ml. The plates were incubated for 48 hours at 37° C. in the anaerobic chamber. The Minimum Inhibitory Concentration (MIC) was read visually. The MIC is defined as the lowest concentration at which there is no detectable growth. The Minimum Bactericidal Concentration (MBC) was determined by taking 50 μl aliquot from each well and placing it in fresh medium. […] The strains of Bacteroides fragilis utilized in the above procedure are identified by letter in accordance with the following legend: |A B. fragilis NCTC 10581

[1] = test system: Campylobacter fetus ss. jejuni NCTC 10842; assay: MIC vs panel of anaerobes; format: cell-based; settings: NCTC10842, procedures of Example 40
[2] = test system: B. fragilis MZ-R ATCC 11295; assay: MIC/MBC against Bacteroides fragilis strain D; format: cell-based; settings: for MBC: ATCC11295, 99.9% reduction in viable count; for MIC: ATCC11295, 48 h, 48 hours, 37° C., anaerobic
Method: The screening panel utilized in this Example consisted of 5 strains of Bacteroides fragilis. All assays were carried out in 96-well microtitre plates. If an isolate was obtained from either a culture collection or clinical source, the isolate was immediately inoculated into Wilkens-Chalgren broth (Oxoid) and incubated at 37° C. in an anaerobic chamber in an atmosphere of 85% nitrogen, 10% carbon dioxide, and 5% hydrogen for 48 hours. At the end of this time, the viable count was about 10^12 organisms/ml broth. A 1 ml aliquot of each culture was placed in an ampoule and quick frozen in acetone-dry ice mixture and stored in liquid nitrogen. When an inoculum was utilized in an assay, one of the ampoules was thawed and diluted with fresh broth to yield a suspension having a count of 5×10^5 organisms/ml. A 100 μl aliquot of this suspension was inoculated into each well of the microtitre plate. A 2 mg sample of the test compound was dissolved in 0.2 ml of a suitable solvent such as dimethylsulfoxide, polyethylene glycol 200 or methanol. […] After addition of the test solution the final inoculum level was 10^5 cells/ml. The plates were incubated for 48 hours at 37° C. in the anaerobic chamber. The Minimum Inhibitory Concentration (MIC) was read visually. The MIC is defined as the lowest concentration at which there is no detectable growth. The Minimum Bactericidal Concentration (MBC) was determined by taking 50 μl aliquot from each well and placing it in fresh medium.

[3] = test system: Costridium difficile NCIB 10666; assay: MIC vs panel of anaerobes; format: cell-based, C. difficile; settings: Clostridioides difficile, NCIB10666, C. difficile NCIB 10666; procedures of Example 40; read-out: MIC
B. fragilis WS-1 = assay: MIC/MBC against Bacteroides fragilis strain E; format: cell-based; settings: for MBC: WS1, 99.9% reduction in viable count; for MIC: WS1, 48 h, 48 hours, 37° C., anaerobic
Method: as §1, with “|E” for “|A”, “WS-1*” for “NCTC 10581”

[4] = test system: Clostridium perfringens NCTC 523; assay: microbe, parasite or virus in culture; format: cell-based; settings: Clostridium perfringens, NCTC523, Clostridium perfringens NCTC 523; procedures of Example 40
B. fragilis 23745 = settings: Bacteroides fragilis, 23745, in Mus musculus, po, 48 h, log CFU/ml liver homogenate, test compound
[5] = read-out: DOSE GIVING 1 LOG REDUCTION (molar), p.o., after infection and twice daily for 2 days
[6] = read-out: DOSE GIVING 1 LOG REDUCTION, p.o., after infection and twice daily for 2 days

SMILES	MBC (B. fragilis NCTC 10581) [µg/mL]	MIC (B. fragilis NCTC 10581) [µg/mL]	MIC [1] [µg/mL]	MBC [2] [µg/mL]	MIC [2] [µg/mL]	MIC [3] [µg/mL]	MBC (B. fragilis WS-1) [µg/mL]	MIC (B. fragilis WS-1) [µg/mL]	MIC [4] [µg/mL]	ED (1 log reduction) (B. fragilis 23745; [5]) [µmol/kg]	ED (1 log reduction) (B. fragilis 23745; [6]) [mg/kg]
CC1(C)CN=C2C(c3ccc(Cl)cc3)=[N+]([O-])c3cnccc3N2C1 [Example 17, 2,3-Dihydro-5-(4-chlorophenyl)-2,2-dimethyl-1H-pyrimido[1,2-a]pyrido[3,4-e]pyrazine 6-oxide]	< 0.8	< 0.8	50 (≈ 147 µM)	< 0.8	< 0.8	< 0.8	< 0.8	< 0.8	< 0.8	9.3	3.2
Cc1ccc(C2=[N+]([O-])c3cccnc3N3CC(C)(C)CN=C23)cc1 [Example 20, 2,3-Dihydro-2,2-dimethyl-5-(4-methylphenyl)-1H-pyrimido[1,2-a]pyrido[3,2-e]pyrazine 6-oxide]	< 0.8	< 0.8	6.2 (≈ 19.4 µM)	< 0.8	< 0.8	< 0.8	< 0.8	1.5 (≈ 4.68 µM)	1.5 (≈ 4.68 µM)	13	4.2
COc1ccc(C2=[N+]([O-])c3cccnc3N3CC(C)(C)CN=C23)cc1OC [Example 22, 2,3-Dihydro-5-(3,4-dimethoxyphenyl)-2,2-dimethyl-1H-pyrimido[1,2-a]pyrido[3,2-e]pyrazine 6-oxide]	1.5 (≈ 4.09 µM)	1.5 (≈ 4.09 µM)	50 (≈ 136 µM)	< 0.8	< 0.8	< 0.8	< 0.8	< 0.8	< 0.8	7.3	2.7
CCC1(C)CN=C2C(c3ccccc3)=[N+]([O-])c3cnccc3N2C1 (stereo not shown) [Example 23, 2,3-Dihydro-2-ethyl-2-methyl-5-phenyl-1H-pyrimido[1,2-a]pyrido[3,4-e]pyrazine 6-oxide]	1.5 (≈ 4.68 µM)	1.5 (≈ 4.68 µM)	100 (≈ 312 µM)	< 0.8	< 0.8	1.5 (≈ 4.68 µM)	3.1 (≈ 9.68 µM)	1.5 (≈ 4.68 µM)	1.5 (≈ 4.68 µM)	6	1.9
CCC1(C)CN=C2C(c3ccccc3)=[N+]([O-])c3cccnc3N2C1 (stereo not shown) [Example 24, 2,3-Dihydro-2-ethyl-2-methyl-5-phenyl-1H-pyrimido[1,2-a]pyrido[3,2-e]pyrazine 6-oxide]	< 0.8	< 0.8	100 (≈ 312 µM)	< 0.8	< 0.8	< 0.8	< 0.8	< 0.8	1.5 (≈ 4.68 µM)	6.8	2.2
CCC1(CC)CN=C2C(c3ccccc3)=[N+]([O-])c3cnccc3N2C1 [Example 25, 2,3-Dihydro-2,2-diethyl-5-phenyl-1H-pyrimido[1,2-a]pyrido[3,4-e]pyrazine 6-oxide]	3.1 (≈ 9.27 µM)	1.5 (≈ 4.49 µM)	6.2 (≈ 18.5 µM)	1.5 (≈ 4.49 µM)	1.5 (≈ 4.49 µM)	1.5 (≈ 4.49 µM)	< 0.8	< 0.8	3.1 (≈ 9.27 µM)	5.75	1.9
CCC1(CC)CN=C2C(c3ccccc3)=[N+]([O-])c3cccnc3N2C1 [Example 26, 2,3-Dihydro-2,2-diethyl-5-phenyl-1H-pyrimido[1,2-a]pyrido[3,2-e]pyrazine 6-oxide]	< 0.8	< 0.8	25 (≈ 74.8 µM)	< 0.8	< 0.8	< 0.8	< 0.8	< 0.8	1.5 (≈ 4.49 µM)	10.1	3.4
CC1(C)CN=C2C(c3ccc(F)cc3)=[N+]([O-])c3cccnc3N2C1 [Example 31, 2,3-Dihydro-2,2-dimethyl-5-(4-fluorophenyl)-1H-pyrimido[1,2-a]pyrido[3,2-e]pyrazine 6-oxide]	< 0.8	< 0.8	50 (≈ 154 µM)	< 0.8	< 0.8	< 0.8	< 0.8	< 0.8	3.1 (≈ 9.56 µM)	3	1
